Assay results: US4997835A, “Substituted 2-acylpyridine-α-(N)-hetarlyhydrazones and medicaments containing the same” (priority 1987, dated 1991)
Values after ≈ are worked out from the molar mass of the structure shown. Read-outs that look alike come from different tables or passages of the source.

Legend:
[1] = tested on: Mycobacterium avium Patient Strain (Birk); test: Minimum inhibiting concentration, M. avium Patient Strain (Birk); type: cell-based; conditions: Mycobacterium avium, M. avium Patient str., read-out: Minimum inhibiting concentration
[2] = tested on: Mycobacterium marinum SN 1254; test: Minimum inhibiting concentration, M. marinum SN1254; type: cell-based
[3] = tested on: Mycobacterium tuberculosis H 37 RV; test: Minimum inhibiting concentration, M. tuberculosis H37RV; type: cell-based; conditions: Mycobacterium tuberculosis; M. tub. H37RV
Description: The minimum inhibiting concentration of the commercially available and inventive substances given in Table 2 was determined according to the known standard process ("Methods for sensitivity testing of bacterial infectious germs", DIN 58940, part 5).
The determination was carried out on the following bacterial cultures:
2. Mycobacterium tuberculosis H 37 RV, FIB 2-85 JS
For culturing the bacterial cultures use was made of nutrient substrates according to Gottsacker and Lowenstein Jensen and culture media according to Lockemann or Dubos-Davis (cf. "Detection processes for mycobacteria from test material, III, culture medium formulations for culturing tuberculosis bacteria", 1978, Publisher: Deutsches Zentralkomitee zur Bekampfung der Tuberculose, Poppenhusenstrasse 14c, 2000 Hamburg 60).
In each case 5×10^-3 to 5×10^-5 mg, based on the wet weight, of the mycobacterial strains were incubated in 2 ml of culture fluid (Lockemann +0.5 wt/vol. % bovine serum albumen fraction 5) at 31° C. with a graded concentration of the particular inhibitor (dilution series). The culture tubes were read off after 8 to 15 days, as a function of the bacterial strain.
The MIC is the inhibitor concentration in μMol/l at which no propagation of the sewn cells is observed.

Mycobacterium lufu = test: Minimum inhibiting concentration, M. lufu L 209; type: cell-based; conditions: Mycobacterium lufu
[4] = tested on: Mycobacterium smegmatis ATCC 607; test: Minimum inhibiting concentration, M. smegmatis ATCC 607; type: cell-based; conditions: Mycolicibacterium smegmatis
M. leprae [5] = test: In vitro propagation of M. leprae, thymidine incorporation; type: cell-based; conditions: Mycobacterium leprae, read-out: % Reduction Thymidine incorporation; for inhibition of growth at 10000 µg/mL: 10 mg/ml
Description: The inhibiting action was determined as a reaction of the thymidine absorption and the ATP content in M. Leprae suspensions, in the manner described by A. M. Dhople, Med. Sci. Res., 15, p.

M. leprae [6] = test: Propagation of M. leprae in mouse paws; type: in vivo; conditions: two months in feed; DDS 0.0001%, Rifampicin 0.001%, K-130 0.01%, Brodimoprim 0.01%, PH 22-26 0.05%
Description: The therapeutic action was determined as a reduction of the number of acid-resistant bacteria in the mouse paw according to C. C. Shepard, J. Experim. Met., 112, p. 445, 1960.
It is possible to detect the synergistic effect of the combinations, even under in vivo conditions.

[7] = tested on: Indochina W-2 (parasitic malaria strain); test: Growth of malaria strain Indochina W-2; type: cell-based; conditions: for IC50: read-out: I50; for IC90: read-out: I90
Text: (§1) Determination of the semimaximum inhibiting concentration (I50) of typical representatives of the inventive compounds for the growth of parasitic malaria strains:
(§2) The determination took place according to the standard process (cf. WHO determination process).
(§3) The process according to Example 35 was repeated with the difference that the semimaximum inhibiting concentration of combinations of the inventive compound PH 22 with (2), (3) inhibitors of dihydrofolic acid reductase, (4) inhibitors of folate synthase and dihydrofolic acid reductase and (5), (6) inhibitors of DNA-synthesis were determined.

[8] = tested on: Sierra Leone D-6 (parasitic malaria strain); test: Growth of malaria strain Sierra Leone D-6; type: cell-based; conditions: for IC50: read-out: I50; for IC90: read-out: I90
Text: as §1, §2, §3

[9] = M. marin. SN1254, read-out: Minimum inhibiting concentration
[10] = ATCC607, M. smegm. ATCC 607, read-out: Minimum inhibiting concentration

SMILES	MIC [2, 9]	MIC [3]	MIC (Mycobacterium lufu)	MIC [4, 10]	other results
Clc1cccc(NN=Cc2ccccn2)n1 [PH 22-29, pyridine-2-aldehyde-6'-chloro-2'-pyridylhydrazone]	6.5 µM (≈ 1.51 µg/mL)	1.6 µM (≈ 0.372 µg/mL)	3.2 µM (≈ 0.745 µg/mL)		MIC [1]: 60 µM
Clc1ccc(NN=Cc2ccccn2)nc1 [PH 22-30, pyridine-2-aldehyde-5'-chloro-2'-pyridylhydrazone]	5.4 µM (≈ 1.26 µg/mL)	1.3 µM (≈ 0.302 µg/mL)	2.7 µM (≈ 0.628 µg/mL)		MIC [1]: 13 µM
Cc1cccc(C=NNc2ccccn2)n1 [PH 22-10, 6-methyl pyridine-2-aldehyde-pyridylhydrazone]		47 µM (≈ 9.98 µg/mL)	8.3 µM (≈ 1.76 µg/mL)	33 µM (≈ 7 µg/mL)	
CC(O)CN(C)c1ccc(NN=Cc2ccccn2)nn1 (centres unmarked) [PH 22-28, pyridine-2-aldehyde-6'-(N-methyl-N-2"-hydroxypropyl)-amino-3'-pyridazinylhydrazone]	70 µM (≈ 20 µg/mL)	140 µM (≈ 40.1 µg/mL)	35 µM (≈ 10 µg/mL)		
CCc1ccc(C=NNc2nncc3ccccc23)nc1 [PH 22-5, 5-ethylpyridine-2-aldehyde-1'-phthalazinylhydrazone]	10.4 µM (≈ 2.88 µg/mL)	16.6 µM (≈ 4.6 µg/mL)	14.5 µM (≈ 4.02 µg/mL)	67 µM (≈ 18.6 µg/mL)	
CN(N=Cc1ccccn1)c1cc(Cl)ncn1 [PH 22-36, pyridine-2-aldehyde-6'-chloro-4'-pyrimidyl-(N1-methyl)-hydrazone]	119 µM (≈ 29.5 µg/mL)	136 µM (≈ 33.7 µg/mL)	5.3 µM (≈ 1.31 µg/mL)		
C(=NNc1nncc2ccccc12)c1ccc(OCc2ccccc2)cn1 [PH 22-6, 5-benzyloxypyridine-2-aldehyde-1'-phthalazinylhydrazone]	7 µM (≈ 2.49 µg/mL)	8.5 µM (≈ 3.02 µg/mL)	5.6 µM (≈ 1.99 µg/mL)	40 µM (≈ 14.2 µg/mL)	MIC [1]: 7 µM
CC(=NNc1cc(Cl)ncn1)c1ccccn1 [PH 22-32]	28.3 µM (≈ 7.01 µg/mL)	6.1 µM (≈ 1.51 µg/mL)	1.3 µM (≈ 0.322 µg/mL)		
Cc1ccc(C=NNc2ccc3ccccc3n2)nc1 [PH 22-14, 5-methyl-pyridine-2-aldehyde-2'-quinolylhydrazone]	5.7 µM (≈ 1.5 µg/mL)	1.2 µM (≈ 0.315 µg/mL)	3.8 µM (≈ 0.997 µg/mL)	9.5 µM (≈ 2.49 µg/mL)	
Cc1cccc(NN=Cc2ccccn2)n1 [PH 22-31, pyridine-2-aldehyde-2'-(6'-methyl)-pyridylhydrazone]	8.3 µM (≈ 1.76 µg/mL)	1.8 µM (≈ 0.382 µg/mL)	3.5 µM (≈ 0.743 µg/mL)		MIC [1]: 57 µM
CC(=O)Nc1ccnc(C(C)=NNc2nncc3ccccc23)c1 [PH 22-20, 4-acetylamino-2-acetylpyridine-1'-phthalazinylhydrazine]	88 µM (≈ 28.2 µg/mL)	10.9 µM (≈ 3.49 µg/mL)	12.5 µM (≈ 4 µg/mL)	15.6 µM (≈ 5 µg/mL)	
CC(=O)Nc1ccnc(C=NNc2ccc3ccccc3n2)c1 [PH 22-19, 4-acetylaminopyridine-2-aldehyde-2'-quinolylhydrazone]	11.5 µM (≈ 3.51 µg/mL)	11.5 µM (≈ 3.51 µg/mL)	32.9 µM (≈ 10 µg/mL)	9.8 µM (≈ 2.99 µg/mL)	
COc1cc(Cc2cnc(N)nc2N)cc(OC)c1OCCCNc1ccc(S(=O)(=O)c2ccc(N)cc2)cc1 [K-130, 2,4-diamino-5-{4-[3-(4'-aminophenyl-4-sulphonylphenylamino)-propoxy]-3,5-dimethoxybenzyl}-pyrimidine]					inhibition of growth at 10000 µg/mL (M. leprae [5]): 0%; inhibition of growth at 20000 µg/mL (M. leprae [5]; 20 mg/ml): 65%; % Inhibition of propagation of M. leprae in mouse paws (M. leprae [6]): 56%
Clc1cccc(C=NNc2ccccn2)n1 [PH 22-11, 6-chloropyridine-2-aldehyde-2'-pyridylhydrazone]		86 µM (≈ 20 µg/mL)	43 µM (≈ 10 µg/mL)	56 µM (≈ 13 µg/mL)	IC50 [7]: 8.9 µM; IC90 [7]: 23 µM; IC50 [8]: 13.1 µM; IC90 [8]: 25.7 µM
CCc1ccc(C=NNc2ccccn2)nc1 [PH 22-13, 5-ethyl-pyridine-2-aldehyde-2'-pyridylhydrazone]	44 µM (≈ 9.96 µg/mL)	22 µM (≈ 4.98 µg/mL)	53 µM (≈ 12 µg/mL)	22 µM (≈ 4.98 µg/mL)	
Nc1ccnc(C=NNc2nncc3ccccc23)c1 [PH 22-23, 4-aminopyridine-2-aldehyde-1'-phthalazinylhydrazine]	38 µM (≈ 10 µg/mL)	13.3 µM (≈ 3.52 µg/mL)	26.5 µM (≈ 7 µg/mL)	13.3 µM (≈ 3.52 µg/mL)	
CC(=NNc1ncnc2ccccc12)c1ccccn1 [PH 22-34, 2-acetylpyridine-4'-quinazolylhydrazone]	64 µM (≈ 16.9 µg/mL)	12 µM (≈ 3.16 µg/mL)	< 1 µM		
c1ccc(C(=NNc2nncc3ccccc23)c2ccccn2)cc1 [PH 22-22, 2-benzoylpyridine-1'-phthalazinylhydrazone]	10.8 µM (≈ 3.51 µg/mL)	18.5 µM (≈ 6.02 µg/mL)	2.3 µM (≈ 0.748 µg/mL)	12.3 µM (≈ 4 µg/mL)	MIC [1]: 86 µM
CC(=NNc1nncc2ccccc12)c1ccccn1 [PH 22-3, 2-acetylpyridine-1'-phthalazinylhydrazone]	22 µM (≈ 5.79 µg/mL)	31 µM (≈ 8.16 µg/mL)	6.6 µM (≈ 1.74 µg/mL)	44 µM (≈ 11.6 µg/mL)	MIC [1]: 53 µM
C(=NNc1nncc2ccccc12)c1ccccn1 [PH 22-1, pyridine-2-aldehyde-1'-phthalazinylhydrazone]		49 µM (≈ 12.2 µg/mL)	12.1 µM (≈ 3.02 µg/mL)	49 µM (≈ 12.2 µg/mL)	
CC(=NNc1nncc2ccccc12)c1cc(N)ccn1 [PH 22-24, 2-acetyl-4-aminopyridine-1'-phthalazinylhydrazine]	18 µM (≈ 5.01 µg/mL)	4.5 µM (≈ 1.25 µg/mL)	2.2 µM (≈ 0.612 µg/mL)	4.5 µM (≈ 1.25 µg/mL)	
CC(=O)Nc1ccnc(C=NNc2nncc3ccccc23)c1 [PH 22-18, 4-acetylaminopyridine-2-aldehyde-1'-phthalazinylhydrazone]	92 µM (≈ 28.2 µg/mL)	46 µM (≈ 14.1 µg/mL)	22.9 µM (≈ 7.01 µg/mL)	65 µM (≈ 19.9 µg/mL)	
CCc1ccc(C=NNc2cc(OC)ncn2)nc1 [PH 22-33, 5-ethylpyridine-2-aldehyde-6'-methoxy-4'-pyrimidylhydrazone]	4.9 µM (≈ 1.26 µg/mL)	2.4 µM (≈ 0.618 µg/mL)	1.5 µM (≈ 0.386 µg/mL)		
C(=NNc1nccc2ccccc12)c1ccccn1 [PH 22-27, pyridine-2-aldehyde-1'-isoquinolylhydrazone]	16.1 µM (≈ 4 µg/mL)	8.1 µM (≈ 2.01 µg/mL)	6 µM (≈ 1.49 µg/mL)	12.1 µM (≈ 3 µg/mL)	
Cc1ccc(C=NNc2nncc3ccccc23)nc1 [PH 22-16, 5-methyl-pyridine-2-aldehyde-1'-phthalazinylhydrazone]	76 µM (≈ 20 µg/mL)	1.4 µM (≈ 0.369 µg/mL)	4.8 µM (≈ 1.26 µg/mL)	5.7 µM (≈ 1.5 µg/mL)	
C(=NNc1ccccn1)c1nccc2ccccc12 [PH 22-37, isoquinoline-1-aldehyde-2'-pyridyl hydrazone]	6 µM (≈ 1.49 µg/mL)	3 µM (≈ 0.745 µg/mL)	12.1 µM (≈ 3 µg/mL)	6 µM (≈ 1.49 µg/mL)	
Nc1ccc(S(=O)(=O)c2ccc(N)cc2)cc1 [DDS, 4,4'-diaminodiphenylsulphone]					inhibition of growth at 5000 µg/mL (M. leprae [5]; 5 mg/ml): 0%; inhibition of growth at 10000 µg/mL (M. leprae [5]): 5%; % Inhibition of propagation of M. leprae in mouse paws (M. leprae [6]): 14%
COc1cc(Cc2cnc(N)nc2N)cc(OC)c1Br [Brodimoprim, brodimoprim, reference compound]	18 µM (≈ 6.11 µg/mL)	94 µM (≈ 31.9 µg/mL)	80 µM (≈ 27.1 µg/mL)		MIC ([1]; values marked *): > 100 µg/mL; % Inhibition of propagation of M. leprae in mouse paws (M. leprae [6]): 3%
Cc1ccnc(C=NNc2nncc3ccccc23)c1 [PH 22-8, 4-methyl-pyridine-2-aldehyde-1'-phthalazinylhydrazone]	22 µM (≈ 5.79 µg/mL)	18 µM (≈ 4.74 µg/mL)	31 µM (≈ 8.16 µg/mL)	44 µM (≈ 11.6 µg/mL)	
CC(=O)Nc1ccnc(C=NNc2ccccn2)c1 [PH 22-17, 4-acetylamino-pyridine-2-aldehyde-2'-pyridylhydrazone]		> 125 µM	94 µM (≈ 24 µg/mL)		MIC ([4]; ATCC607, read-out: Minimum inhibiting concentration): > 125 µM; IC50 [7]: 0.5 µM; IC90 [7]: 2.3 µM; MIC ([2]; SN1254, read-out: Minimum inhibiting concentration): > 125 µM; IC50 [8]: 0.6 µM; IC90 [8]: 1.1 µM
